Assay results reported in patent US10857180B2, “Pharmaceutical composition for improving health, cure abnormalities and degenerative disease, achieve anti-aging effect of therapy and therapeutic effect on mammals and method thereof” (priority 2014, dated 2020).
Where “and” joins values, the source holds several entries; their conditions need not be identical. Equal entries are not always repeated. Marks after values point to notes of the source that are not given here.

Columns and labels:
mouse L1210 leukemia = assay: Mouse L1210 leukemia model; assay type: in vivo
Description: The efficacy of the ^64Zne aspartate composition with respect to growth and metastatic activity of the experimental tumor (strain of mouse L1210 leukemia) was assessed in the experiment. […] To inoculate the strain, tumor cells derived from ascitic fluid were placed in normal saline solution, the cellularity of suspension was determined using a hemocytometer and adjusted to a concentration of 1×10^6 cells/ml with saline solution. The tumor was transplanted by injecting 250 μl of the tumor cell suspension (0.25×10^6 cells/mouse) into abdominal cavities of the animals. 80 male BDFi mice at the age of 8-10 weeks, weighing 18-22 g were used in the experiment.
In the experiment, 0.25×10^6 cells of mouse L1210 leukemia in 0.3 ml of saline solution were injected in the peritoneal cavities of the BDFi mice. The agent according to the invention was dissolved in deuterium-depleted water (deuterium-depleted water Langvey) and given to the experimental animals from the first day after the inoculation of the tumor cells. The solution composition comprising ^64Zne aspartate and deuterium-depleted water was injected intraperitoneally using a microinjection syringe at doses of 25 μg/mouse, 50 μg/mouse and 75 pig/mouse every other day (7 times during 14 days) in a volume of 0.5 ml/mouse. The said agent was also injected intravenously at a dose of 25 μg/mouse every other day (7 times during 14 days) in a volume of 0.2 ml/mouse. […] At day 8, 13 and 18 after inoculation of tumor cells, the whole ascites fluid was recovered from the animals and the total number of live/dead cells in each mouse was determined. Some mice were also used to evaluate their average life span in the experiment.
Clinical observations were carried out as described in Example 7. The animals were divided into groups as follows (16 mice per group): • 1. Group No 1: control group, L1210+solvent (deuterium-depleted water); • 2. Group No 2: L1210+^64Zne aspartate administered i.v. at a dose of 25 μg/mouse; • 3. Group No 3: L1210+^64Zne aspartate administered i.p. at a dose of 25 μg/mouse; • 4. Group No 4: L1210+^64Zne aspartate administered i.p. at a dose of 50 μg/mouse; • 5. Group No 5: L1210+^64Zne aspartate administered i.p. at a dose of 75 μg/mouse.
^64Zne aspartate was diluted in deuterium-depleted water and injected, starting from the first day of the tumor transplantation, 7 times every other day during 14 days in a volume of 0.5 ml/mouse using an i.p. route of administration and in a volume of 0.2 ml/mouse using an i.v. route of administration. The animals of the control group received intraperitoneal injections with 0.5 ml/mouse of deuterium-depleted water.
The dynamics of formation of ascites in the control and experimental groups was assessed visually using a 10-point scale (one point was 0.5 cm of the mean diameter of the mouse abdomen filled with ascites).
In addition, at 8, 13 and 18 days after the mice were inoculated with the tumor cells, all ascitic fluid was removed from the abdomens in all animals from each group by washing their peritoneal cavities with saline solution and live and dead tumor cells were counted using the traditional vital dye trypan blue (HyClon, USA) and a hemocytometer.
The number of cells was determined using the following formula: X=((a)/80)×10^6, where X is the number of cells in 1 ml and a is the number of cells counted in 80 small squares of the hemocytometer.
50% of the mice in each group were used to assess their average length of survival in the experiment. The percentage change in the lifespan of the experimental animals was calculated using the following formula: (c−d)/[…]×100, where: c is the average lifespan in the experimental group and d is the average lifespan in the control group. The total time of observation of the lifespan of the experimental animals was 60 days after the tumor inoculation.

[1] = test system: healthy human skin cells (HaCaT cell line); assay: Scratch assay, HaCaT cells; assay type: cell-based; conditions: ^64Zn 25 mcg/ml; equal to control
Description: The cells of A-549, A-431, NRK, HaCaT, MM-4, normal fibroblasts (derived from the Bank of Cell Lines from human and animal tissues, R. E. Kavetsky Institute of Experimental Pathology, Oncology and Radiobiology, National Academy of Sciences of Ukraine) were cultured in complete culture medium RPMI 1640/DMEM (PAA, Austria) (depending on the cell type) supplemented with 10% fetal calf serum (PAA, Austria) and incubated in 5% CO2 humidified atmosphere at 37° C. The culture medium was replaced in 2 to 3 days and the cells were passaged in 4 to 5 days.
Analysis of the influence of the components under study on the cell migration rate was performed using the scratch assay method. […]
The plate was incubated in a CO2 incubator for additional 48 hours. After the cells formed a dense monolayer it was damaged (by making a “scratch”) and the growth medium was replaced to remove cell debris and smooth the edges of the “scratch.” The rate of cell migration was analyzed using an inverted microscope and by photographing cells in the area of injury. The migration activity of cells was fixed at several time points (depending on the cell line analyzed). The microphotomicrographs were analyzed and the cell incubation time needed to restore the monolayer was determined for all experimental groups. […]

NC(CC(=O)[O-])C(=O)[O-].[64Zn+2] (racemic) [^64Zne aspartate, ^64Zn aspartate (racemic)]
decrease in the number of live cells in the peritoneal cavities (mouse L1210 leukemia; 50 μg/mouse or 75 μg/mouse, after 3 injections): 100% | Number of live cells/mouse (M ± m) (mouse L1210 leukemia; day 8, i.p. 25 μg/mouse): 335.8 × 10^6 | Percentage of dead tumor cells in ascites fluid (mouse L1210 leukemia; day 8, i.p. 25 μg/mouse): below 2% | Volume of ascites (M ± m) (mouse L1210 leukemia; day 8, i.p. 25 μg/mouse): 0.8 ± 0.8 ml/mouse | number of cells in the ascites of the one mouse with tumor cells (mouse L1210 leukemia; day 8, i.p. 25 μg/mouse, 1 of 2 mice): indicators (671. 6 × 10^6). No | Number of live cells/mouse (M ± m) (mouse L1210 leukemia; day 8, i.p. 50 μg/mouse): 0** | Percentage of dead tumor cells in ascites fluid (mouse L1210 leukemia; day 8, i.p. 50 μg/mouse): 0% | Volume of ascites (M ± m) (mouse L1210 leukemia; day 8, i.p. 50 μg/mouse): 0* ml/mouse | Number of live cells/mouse (M ± m) (mouse L1210 leukemia; day 8, i.p. 75 μg/mouse): 0** | Percentage of dead tumor cells in ascites fluid (mouse L1210 leukemia; day 8, i.p. 75 μg/mouse): 0% | Volume of ascites (M ± m) (mouse L1210 leukemia; day 8, i.p. 75 μg/mouse): 0* ml/mouse | Number of live cells/mouse (M ± m) (mouse L1210 leukemia; day 8, i.v. 25 μg/mouse): 902 × 10^6 | Percentage of dead tumor cells in ascites fluid (mouse L1210 leukemia; day 8, i.v. 25 μg/mouse): below 2% | Volume of ascites (M ± m) (mouse L1210 leukemia; day 8, i.v. 25 μg/mouse): 1.2 ± 0.3 ml/mouse | Number of live cells/mouse (M ± m) (mouse L1210 leukemia; day 13, i.p. 25 μg/mouse): 532.7 × 10^6 | Percentage of dead tumor cells in ascites fluid (mouse L1210 leukemia; day 13, i.p. 25 μg/mouse): below 3% | Volume of ascites (M ± m) (mouse L1210 leukemia; day 13, i.p. 25 μg/mouse): 1.9 ± 1.5 ml/mouse | Number of live cells/mouse (M ± m) (mouse L1210 leukemia; day 13, i.p. 50 μg/mouse): 0** | Percentage of dead tumor cells in ascites fluid (mouse L1210 leukemia; day 13, i.p. 50 μg/mouse): 0% | Volume of ascites (M ± m) (mouse L1210 leukemia; day 13, i.p. 50 μg/mouse): 0* ml/mouse | Number of live cells/mouse (M ± m) (mouse L1210 leukemia; day 13, i.p. 75 μg/mouse): 0** | Percentage of dead tumor cells in ascites fluid (mouse L1210 leukemia; day 13, i.p. 75 μg/mouse): 0% | Volume of ascites (M ± m) (mouse L1210 leukemia; day 13, i.p. 75 μg/mouse): 0* ml/mouse | Number of live cells/mouse (M ± m) (mouse L1210 leukemia; day 13, i.v. 25 μg/mouse): 1322 × 10^6 | Percentage of dead tumor cells in ascites fluid (mouse L1210 leukemia; day 13, i.v. 25 μg/mouse): below 3% | Volume of ascites (M ± m) (mouse L1210 leukemia; day 13, i.v. 25 μg/mouse): 6 ± 1.5 ml/mouse | amount of ascites less than control (mouse L1210 leukemia; day 15, 50 μg): 87% | amount of ascites less than control (mouse L1210 leukemia; day 15, 75 μg): 90% | amount of ascites less than control (mouse L1210 leukemia; day 15, i.p. 25 μg/mouse): 60% | Average lifespan of animals (M ± m) (mouse L1210 leukemia; i.p. 25 μg/mouse): 28.1 ± 4.7 days | Increase in the lifespan of experimental animals (mouse L1210 leukemia; i.p. 25 μg/mouse): 41.3% | Number of animals in the group with tumor (mouse L1210 leukemia; i.p. 25 μg/mouse): 11 pc | Number of animals in the group without tumor (mouse L1210 leukemia; i.p. 25 μg/mouse): 5 pc | Tumor-free animals (mouse L1210 leukemia; i.p. 25 μg/mouse x7): 31.2% | Volume of ascites in mice (mouse L1210 leukemia; i.p. 25 μg/mouse x7, day 8): 0.6 ± 0.3 points | Volume of ascites in mice (mouse L1210 leukemia; i.p. 25 μg/mouse, day 10): 1.1 ± 0.5 points | Volume of ascites in mice (mouse L1210 leukemia; i.p. 25 μg/mouse, day 13): 2.5± 0.6 points | Volume of ascites in mice (mouse L1210 leukemia; i.p. 25 μg/mouse, day 15): 4.1 points and 4.1 ± 1.1 points | Volume of ascites in mice (mouse L1210 leukemia; i.p. 25 μg/mouse, day 18): 4.8 ± 1.4 points | Volume of ascites in mice (mouse L1210 leukemia; i.p. 25 μg/mouse, day 20): 4.6 ± 1.8 points | Volume of ascites in mice (mouse L1210 leukemia; i.p. 25 μg/mouse, day 22): 3.5 ± 2.2 points | Volume of ascites in mice (mouse L1210 leukemia; i.p. 25 μg/mouse, day 26): 2.5 ± 2.5 points | Volume of ascites in mice (mouse L1210 leukemia; i.p. 25 μg/mouse, day 28): 0 points | Average lifespan of animals (M ± m) (mouse L1210 leukemia; i.p. 50 μg/mouse): 41.6 ± 8.7 days | Increase in the lifespan of experimental animals (mouse L1210 leukemia; i.p. 50 μg/mouse): 60.3% | Number of animals in the group with tumor (mouse L1210 leukemia; i.p. 50 μg/mouse): 5 pc | Number of animals in the group without tumor (mouse L1210 leukemia; i.p. 50 μg/mouse): 11 pc | Tumor-free animals (mouse L1210 leukemia; i.p. 50 μg/mouse x7): 68.8% | Volume of ascites in mice (mouse L1210 leukemia; i.p. 50 μg/mouse x7, day 8): 0* points | Volume of ascites in mice (mouse L1210 leukemia; i.p. 50 μg/mouse, day 10): 0* points | Volume of ascites in mice (mouse L1210 leukemia; i.p. 50 μg/mouse, day 13): 0.4 ± 0.2 points | Volume of ascites in mice (mouse L1210 leukemia; i.p. 50 μg/mouse, day 15): 1.3 ± 0.7 points | Volume of ascites in mice (mouse L1210 leukemia; i.p. 50 μg/mouse, day 15, listed as 64Zn aspartate): 1.3 points | Volume of ascites in mice (mouse L1210 leukemia; i.p. 50 μg/mouse, day 18): 1.1 ± 1.1 points | Volume of ascites in mice (mouse L1210 leukemia; i.p. 50 μg/mouse, day 20): 0 points | Volume of ascites in mice (mouse L1210 leukemia; i.p. 50 μg/mouse, day 22): 0 points | Volume of ascites in mice (mouse L1210 leukemia; i.p. 50 μg/mouse, day 26): 0 points | Volume of ascites in mice (mouse L1210 leukemia; i.p. 50 μg/mouse, day 28): 0 points | Average lifespan of animals (M ± m) (mouse L1210 leukemia; i.p. 75 μg/mouse): 55 ± 5 days | Increase in the lifespan of experimental animals (mouse L1210 leukemia; i.p. 75 μg/mouse): 70% | Number of animals in the group with tumor (mouse L1210 leukemia; i.p. 75 μg/mouse): 1 pc | Number of animals in the group without tumor (mouse L1210 leukemia; i.p. 75 μg/mouse): 15 pc | Tumor-free animals (mouse L1210 leukemia; i.p. 75 μg/mouse x7): 93.8% | Volume of ascites in mice (mouse L1210 leukemia; i.p. 75 μg/mouse x7, day 8): 0* points | Volume of ascites in mice (mouse L1210 leukemia; i.p. 75 μg/mouse, day 10): 0* points | Volume of ascites in mice (mouse L1210 leukemia; i.p. 75 μg/mouse, day 13): 0.4 ± 0.4 points | Volume of ascites in mice (mouse L1210 leukemia; i.p. 75 μg/mouse, day 15): 1 ± 1 points | Volume of ascites in mice (mouse L1210 leukemia; i.p. 75 μg/mouse, day 15, listed as 64Zn aspartate): 1 points | Volume of ascites in mice (mouse L1210 leukemia; i.p. 75 μg/mouse, day 18): 1.1 ± 1.1 points | Volume of ascites in mice (mouse L1210 leukemia; i.p. 75 μg/mouse, day 20): 0 points | Volume of ascites in mice (mouse L1210 leukemia; i.p. 75 μg/mouse, day 22): 0 points | Volume of ascites in mice (mouse L1210 leukemia; i.p. 75 μg/mouse, day 26): 0 points | Volume of ascites in mice (mouse L1210 leukemia; i.p. 75 μg/mouse, day 28): 0 points | Increase in the lifespan of experimental animals (mouse L1210 leukemia; i.v. 25 μg/mouse): 2.4% | Number of animals in the group without tumor (mouse L1210 leukemia; i.v. 25 μg/mouse): 0 pc | Tumor-free animals (mouse L1210 leukemia; i.v. 25 μg/mouse): 0% | Volume of ascites in mice (mouse L1210 leukemia; i.v. 25 μg/mouse x7, day 8): 3.3 ± 0.3 points | Number of animals in the group with tumor (mouse L1210 leukemia; i.v. 25 μg/mouse, 16 mice per group): 16 pc | Average lifespan of animals (M ± m) (mouse L1210 leukemia; i.v. 25 μg/mouse, 60 days observation): 16.9 ± 1.3 days | Volume of ascites in mice (mouse L1210 leukemia; i.v. 25 μg/mouse, day 10): 4.7 ± 0.4 points | Volume of ascites in mice (mouse L1210 leukemia; i.v. 25 μg/mouse, day 13): 7.7 ± 0.4 points | Volume of ascites in mice (mouse L1210 leukemia; i.v. 25 μg/mouse, day 15): 9.7 ± 0.3 points | Volume of ascites in mice (mouse L1210 leukemia; i.v. 25 μg/mouse, day 18): 8 ± 0.9 points | Volume of ascites in mice (mouse L1210 leukemia; i.v. 25 μg/mouse, day 20): 10 points | percentage of dead tumor cells in the ascites treated with the agent (mouse L1210 leukemia; mouse, in vivo): ≤ 5% | effect on the growth of mouse leukemia L1210 cells (mouse L1210 leukemia; series of intravenous injections): no effect

O=S(=O)([O-])[O-].[64Zn+2] [^64Zn]
time of monolayer healing [1]: 36 h
